The nature of data set [1]: Fluorescence counterassay (AMC quenching). The conditions noted are these: 1 μM AMC; for Biochemical (fluorogenic counterassay) Max Response: 0% = 1 μM AMC, −100% = 0.1 μM AMC, <0% = quenching. The protocol:
Assay buffer (50 mM Tris pH 8, 150 mM NaCl, 0.01% Tween20) was added to the full plate to give a total reaction volume of 5 μL. Detection was done using the PHERAstar with 340 nm excitation and 440 nm emission. Fluorescence was normalized relative to a negative control containing 7-amino-4-methylcoumarin at 0.1 μM (−100% activity, low fluorescence) and a positive control containing 7-amino-4-methylcoumarin at 1 μM (0% activity, high fluorescence).

In data set [2] the test system is Calu-3 cells. The conditions noted are these: for AC50: read-out: Calu-3 (cytotoxicity) AC50, N/D = Not Detected.
In data set [3] the target is T1, Recombinant Human TMPRSS2 (Homo sapiens, UniProt O15393). Description: biochemical. The format is biochemical. The following applies: for AC50: 10 μM Boc-QAR-AMC, 0.175 μM TMPRSS2, 1 h RT, 11-point dose-response in triplicate, read-out: Biochemical (fluorogenic) AC50. Here is the method:
Buffer conditions were tested and optimized to include: 50 mM Tris pH 8, 150 mM NaCl and 0.01% Tween20.
Following 1 h of incubation at RT, detection was done using the PHERAstar with 340 nm excitation and 440 nm emission (Table 1).
To determine compound activity in the assay, the concentration–response data for each sample was plotted and modeled by a four-parameter logistic fit yielding IC50 and maximal response values. […] Data normalization, visualization, and curve fitting were performed using Prism (GraphPad, San Diego, CA).

The target of data set [4] is T1, Recombinant Human TMPRSS2. Description: biochemical. Type of data set: biochemical. The following applies: for AC50: 10 μM peptide, 0.4 μM TMPRSS2, 1 h RT, N/D = Not Detected, read-out: Biochemical (mass spectrometry) AC50; for IC50: biochemical assay not given, matches mass spectrometry values, read-out: IC50 inhibition of TMPRSS2.
Data set [5] deals with H1N1 and H3N2 influenza virus strains. The conditions noted are these: Calu-3 cells; cited from earlier work.
Data set [6] concerns Calu-3 cells. The conditions noted are these: cited from earlier work.
The target of the next data set is recombinant TMPRSS2. The conditions noted are these: fluorogenic peptide substrate; cited from earlier work.
The nature of a further data set: in vitro. The conditions noted are these: human.

The term AC50 denotes the concentration giving half of the maximal activity seen. What is called Ki is a measure of affinity in units of concentration, obtained from inhibition or displacement. In general, IC50 refers to the concentration that gives 50% inhibition.

“Also recorded” adds a separate entry of the source. Where a name gives a salt, the structure may show the parent alone. Read-outs that look alike come from different tables or passages of the source.

T1 sequence (O15393 106-492): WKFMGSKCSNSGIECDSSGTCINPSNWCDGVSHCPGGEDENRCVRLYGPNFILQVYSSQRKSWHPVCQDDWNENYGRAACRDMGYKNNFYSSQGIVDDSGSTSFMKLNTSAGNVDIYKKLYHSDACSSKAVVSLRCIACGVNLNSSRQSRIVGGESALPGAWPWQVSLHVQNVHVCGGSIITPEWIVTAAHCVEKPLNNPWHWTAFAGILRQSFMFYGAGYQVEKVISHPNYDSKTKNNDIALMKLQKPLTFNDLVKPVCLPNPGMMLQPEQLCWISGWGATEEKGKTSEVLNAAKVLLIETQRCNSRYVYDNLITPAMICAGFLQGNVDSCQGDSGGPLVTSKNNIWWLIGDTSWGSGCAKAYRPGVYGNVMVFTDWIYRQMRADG

Turning to `CCOC(=O)c1ccc(OC(=O)CCCCCNC(=N)N)cc1` [Gabexate mesilate], the “Biochemical (fluorogenic counterassay) Max Response” value (shortened to “Biochemical”) in data set [1] turned out to be 17.4%. Besides, the “Calu-3 (cytotoxicity) Max Response” value in the data set with Calu-3 cells [2] (ATP content, no PP) is given as 0%.

As for `NCCc1ccc(S(=O)(=O)F)cc1` [4-(2-aminoethyl)benzenesulfonyl fluoride], the “Biochemical” value in data set [1] is 23%. Besides, in the data set on Calu-3 cells [2] (ATP content, no PP), the “Calu-3 (cytotoxicity) Max Response” value is given as 0%.

As to `N=C(N)c1ccc2cc(OC(=O)c3ccc(N=C(N)N)cc3)ccc2c1` [Nafamostat mesilate], in data set [1], the “Biochemical” value was -1.9%. The “Calu-3 (cytotoxicity) Max Response” value with Calu-3 cells [2] (ATP content, no PP) worked out at 0%.

Regarding Marizomib / Salinosporamide A, the “Biochemical” value in data set [1] worked out at 2.2%. The “Calu-3 (cytotoxicity) Max Response” value with Calu-3 cells [2] (ATP content, no PP) is -98%. Moreover, the AC50 in the data set on Calu-3 cells [2] (ATP content, no PP) came out at 0.1 µM; in data set [3], 14.7 µM; in data set [4], 22.9 µM.

In the case of `CC(=O)N[C@@H](CC(C)C)C(=O)N[C@@H](CC(C)C)C(=O)N[C@H](C=O)CCCNC(=N)N` [Leupeptin], the “Biochemical” value in data set [1] is 0.5%. Further, in the data set on Calu-3 cells [2] (ATP content, no PP), the “Calu-3 (cytotoxicity) Max Response” value is recorded as 0%. The AC50 is 1.58 µM in data set [3] and 0.72 µM in data set [4].

Regarding tannic acid, the “quenching of the AMC fluorescent signal” value in data set [1] is ~ 30%.

On to `N=C(N)NC(=O)c1nc(Cl)c(N)nc1N` [Amiloride HCl], for which the “Biochemical” value in data set [1] worked out at 26.6%. Also, in the data set on Calu-3 cells [2] (ATP content, no PP), the “Calu-3 (cytotoxicity) Max Response” value worked out at 0%. The AC50 stood at 8.29 µM in data set [3] and 9 µM in data set [4].

For the molecule `Nc1nc2ncc(CNc3ccc(C(=O)N[C@@H](CCC(=O)O)C(=O)O)cc3)nc2c(=O)[nH]1` [Folic Acid], the “Biochemical” value in data set [1] came to 14.5%. Also, in the data set on Calu-3 cells [2] (ATP content, no PP), the “Calu-3 (cytotoxicity) Max Response” value was determined as 0%. In data set [3], the AC50 stood at 13.3 µM.

Consider `NC[C@H]1CC[C@H](C(=O)Oc2ccc(CCC(=O)O)cc2)CC1` [Cetraxate HCl], for which the “Biochemical” value in data set [1] is 2.7%. Moreover, in the data set with Calu-3 cells [2] (ATP content, no PP), the “Calu-3 (cytotoxicity) Max Response” value was determined as 0%. In addition, the figures for the AC50 in data set [3] and in data set [4] were 2.34 µM and 5.52 µM, respectively.

Take `COC(=O)N[C@H](C(=O)N1CCC[C@H]1c1nc(-c2ccc(-c3ccc(-c4c[nH]c([C@@H]5CCCN5C(=O)[C@@H](NC(=O)OC)C(C)C)n4)cc3)cc2)c[nH]1)C(C)C` [Daclatasvir dihydrochloride]: the “Biochemical” value in data set [1] is 447%. In the data set on Calu-3 cells [2] (ATP content, no PP), the “Calu-3 (cytotoxicity) Max Response” value amounted to 0%. For the same molecule, the AC50 in data set [3] amounted to 13.3 µM.

Take `N=C(N)c1cccc(CC(NS(=O)(=O)c2cccc(-c3ccc(Cl)cc3Cl)c2)C(=O)N2CCC(CCN)CC2)c1` (stereo not shown) [Cmpd 92 (Meyer)]: the “Biochemical” value in data set [1] is reported as -5.6%. In addition, the “replication of H1N1 and H3N2 influenza virus strains” value in data set [5] is given as “significantly reduced”. The “Calu-3 (cytotoxicity) Max Response” value with Calu-3 cells [2] (ATP content, no PP) stood at 0%. The “cytotoxicity within Calu-3 cells” value in the data set on Calu-3 cells [6] is on record as “not cytotoxic”. Moreover, the AC50 in data set [3] is 0.41 µM. Also, the Ki on recombinant TMPRSS2 is 0.0009 µM. In data set [4], the AC50 came to 0.28 µM and the IC50 was approximately 0.3 µM.

With `N=C(N)c1ccc2nc(-c3cc(CC(=O)N[C@@H](CC(=O)O)C(=O)O)cc(-c4cc(S(N)(=O)=O)ccc4O)c3O)[nH]c2c1` [PCI-27483], in data set [1], the “Biochemical” value is 61.3%. In addition, the “Calu-3 (cytotoxicity) Max Response” value in the data set on Calu-3 cells [2] (ATP content, no PP) is recorded as 0%. The AC50 in data set [3] turned out to be 1.8 µM; in data set [4], 1.4 µM.

As for `CN(C)C(=O)COC(=O)Cc1ccc(OC(=O)c2ccc(NC(=N)N)cc2)cc1` [Camostat], the “Biochemical” value in data set [1] was -5%. In addition, the “Calu-3 (cytotoxicity) Max Response” value in the data set on Calu-3 cells [2] (ATP content, no PP) is given as 0%.

As for G-007-LK, the “Biochemical” value in data set [1] is recorded as 424%. The “Calu-3 (cytotoxicity) Max Response” value with Calu-3 cells [2] (ATP content, no PP) was found to be 0%. The AC50 in data set [3] is 14.7 µM.

With `CN(C(=O)C(Cl)Cl)c1ccc(OC(=O)c2ccco2)cc1` [Diloxanide furoate], in data set [1], the “Biochemical” value was -3.2%. Moreover, the “Calu-3 (cytotoxicity) Max Response” value in the data set on Calu-3 cells [2] (ATP content, no PP) amounted to 0%. In addition, the results for the AC50 in data set [3] and in data set [4] were 11.1 µM and 21.7 µM, respectively.

Consider AGN194310, for which the “Biochemical” value in data set [1] is -9.2%. In addition, the “Calu-3 (cytotoxicity) Max Response” value in the data set with Calu-3 cells [2] (ATP content, no PP) turned out to be 0%. For the same molecule, the AC50 in data set [3] turned out to be 7.9 µM.

`COC(=O)[C@H](Cc1cccc(C(=N)N)c1)[C@@H](C)NC(=O)c1ccc(-c2cc[n+]([O-])cc2)cc1` [Otamixaban]: in data set [1], the “Biochemical” value is listed as -1%. Moreover, the “Calu-3 (cytotoxicity) Max Response” value with Calu-3 cells [2] (ATP content, no PP) came to 0%.

As for `CC(C)C[C@H](NC(=O)[C@H](Cc1ccccc1)NC(=O)c1cnccn1)B(O)O` [Bortezomib], the AC50 in the data set “in vitro” is 0.29 µM; in data set [3], 11.4 µM; in data set [4], 9.77 µM. Moreover, in data set [1], the “Biochemical” value is 4.6%. In the data set with Calu-3 cells [2] (ATP content, no PP), the “Calu-3 (cytotoxicity) Max Response” value is recorded as -97%. Besides, the “cytotoxicity towards Calu-3 cells” value in the data set on Calu-3 cells [2] (cytotoxicity counter-assay) is “high cytotoxicity”.

Turning to `CCOC(=O)c1cc(=O)c2c(OCC(COc3cccc4oc(C(=O)OCC)cc(=O)c34)OC(=O)[C@@H](N)CCCCN)cccc2o1` [Cromoglicate lisetil], the “Biochemical” value in data set [1] is listed as -1.4%. For the same molecule, the “Calu-3 (cytotoxicity) Max Response” value with Calu-3 cells [2] (ATP content, no PP) is given as 0%. Also, the AC50 was determined as 16.5 µM in data set [3] and 25.1 µM in data set [4].

For `O=c1ccc2ccc(O)cc2o1` [7-Hydroxycoumarin], the “Biochemical” value in data set [1] was 1373%. Further, the “Calu-3 (cytotoxicity) Max Response” value in the data set with Calu-3 cells [2] (ATP content, no PP) is listed as 0%. For the same molecule, the AC50 in data set [3] is 8.62 µM. In addition, in data set [3] (at 40 μM), the “inhibition of TMPRSS2 in the fluorogenic assay” value is “nearly full inhibition”. Moreover, in data set [4] (dose-response), the “inhibition of TMPRSS2 in the mass spectrometry detection assay” value was “no inhibition detected; also recorded: did not show inhibition”.

As for Dibromopropamidine Dihydrochloride, the “Biochemical” value in data set [1] is reported as 87%. The “Calu-3 (cytotoxicity) Max Response” value with Calu-3 cells [2] (ATP content, no PP) is reported as -85%. For the same molecule, the AC50 in the data set on Calu-3 cells [2] (ATP content, no PP) was 25.1 µM; in data set [3], 4.4 µM; in data set [4] it was 4.34 µM.

`O=S(=O)(F)Cc1ccccc1` [Phenylmethanesulfonyl fluoride (PMSF), Phenylmethanesulfonyl fluoride]: the “Biochemical” value in data set [1] was -2.8%. In addition, the “Calu-3 (cytotoxicity) Max Response” value in the data set with Calu-3 cells [2] (ATP content, no PP) was 0%.

Turning to `N=C(N)c1cccc(CC(NS(=O)(=O)c2cccc(-c3ccc(Cl)cc3Cl)c2)C(=O)N2CCC(NC(=O)NC3CCCCC3)CC2)c1` (stereo not shown) [Cmpd 114 (Meyer)], the “Biochemical” value in data set [1] is on record as -6.2%. Also, the “Calu-3 (cytotoxicity) Max Response” value in the data set on Calu-3 cells [2] (ATP content, no PP) is recorded as 0%. In addition, the “cytotoxicity within Calu-3 cells” value in the data set with Calu-3 cells [6] was “not cytotoxic”. The AC50 in data set [3] is 0.57 µM. Further, the Ki on recombinant TMPRSS2 was 0.005 µM. In addition, in data set [4], the AC50 came to 0.26 µM and the 50% inhibitory concentration (IC50) is approximately 0.3 µM.

`O=c1ccn([C@H]2C[C@H](O)[C@@H](CO)O2)c(=O)[nH]1` [Deoxyuridine]: the “Biochemical” value in data set [1] was found to be 19.3%. Moreover, the “Calu-3 (cytotoxicity) Max Response” value with Calu-3 cells [2] (ATP content, no PP) worked out at 0%. Further, in data set [3], the AC50 came to 16 µM.

With `N=C(N)c1ccc(OCCCCCOc2ccc(C(=N)N)cc2)cc1` [Pentamidine isethionate], the values for the AC50 (in “in vitro”; in data set [3]; in data set [4]) were 18.6 µM, 9.49 µM and 7.6 µM, respectively. Besides, in data set [1], the “Biochemical” value was -0.05%.

Turning to “Hydroxystilbamidine bis(methanesulfonate)”, the “Biochemical” value in data set [1] is given as -6.4%. Further, the “Calu-3 (cytotoxicity) Max Response” value in the data set with Calu-3 cells [2] is 0%. Further, the AC50 stood at 3.03 µM in data set [3] and 2.31 µM in data set [4].

As for `COC[C@H]1C[C@@H](c2ncc(-c3ccc4c(c3)COc3cc5c(ccc6nc([C@@H]7CC[C@H](C)N7C(=O)[C@@H](NC(=O)OC)C(C)C)[nH]c65)cc3-4)[nH]2)N(C(=O)[C@H](NC(=O)OC)c2ccccc2)C1` [Velpatasvir], in data set [1], the “Biochemical” value came to 442%. For the same molecule, the “Calu-3 (cytotoxicity) Max Response” value in the data set with Calu-3 cells [2] (ATP content, no PP) came out at 0%. Moreover, the AC50 in data set [3] amounted to 14.7 µM; in data set [4], 13.2 µM.
